Source: patent US11946041B2, “Modification of polypeptides” (BicycleRD Limited, priority 2017, dated 2024)
Each block holds one sequence with its values, some of them ahead of it.

Legend:
CCR4 [1] = target: T1, CCR4 (Homo sapiens, UniProt P51679); test: PathHunter eXpress CCR4 CHO-K1 β-Arrestin GPCR Assay, agonist format; format: cell-based
T1 construct: host or cells: CHO-K1
T1 sequence (P51679 1-360): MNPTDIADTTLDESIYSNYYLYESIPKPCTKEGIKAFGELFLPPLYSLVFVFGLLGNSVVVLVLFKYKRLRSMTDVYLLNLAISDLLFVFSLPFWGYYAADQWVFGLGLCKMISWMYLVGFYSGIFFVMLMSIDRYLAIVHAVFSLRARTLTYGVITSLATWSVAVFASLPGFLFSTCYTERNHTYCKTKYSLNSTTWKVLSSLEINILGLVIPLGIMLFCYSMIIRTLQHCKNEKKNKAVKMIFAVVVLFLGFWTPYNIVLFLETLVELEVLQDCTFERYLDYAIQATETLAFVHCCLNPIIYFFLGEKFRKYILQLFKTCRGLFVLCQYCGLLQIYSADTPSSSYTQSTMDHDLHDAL
Protocol: (§1) The aim of the present experiment was to analyze if if these peptides are functional using a Discoverx Assay, the Beta-Arrestin recruitment assay, to identify agonism or antagonism in the selected peptides.
(§2) Standard protocols used: • PathHunter® eXpress CCR4 CHO-K1 β-Arrestin GPCR Assay. 100 dp (1×96-well)
(§3) The experiment was carried using the manufacturer instructions.
The concentration was increased to test for response at high concentration.

CCR4 [2] = target: T1, CCR4; test: PathHunter eXpress CCR4 CHO-K1 β-Arrestin GPCR Assay, antagonist format with CCL22; format: cell-based
Protocol: as §1, §2, §3
We therefore used the assay in an antagonist format, using 10 nM CCL22.
We repeated this experiment lowering the concentration of CCL22 from 10 nM to 1 nM to show a full inhibition curve.

Raw Data (CCR4 [1]; 0.006 nM): 24609 | Raw Data (CCR4 [1]; 0.02 nM): 24123 | Raw Data (CCR4 [1]; 0.06 nM): 27885 | Raw Data (CCR4 [1]; 0.17 nM): 25757 | Raw Data (CCR4 [1]; 0.51 nM): 27976 | Raw Data (CCR4 [1]; 1.5 nM): 27602 | Raw Data (CCR4 [1]; 4.6 nM): 26096 | Raw Data (CCR4 [1]; 13.9 nM): 22941 | Raw Data (CCR4 [1]; 41.7 nM): 22581 | Raw Data (CCR4 [1]; 125 nM): 22195 | Raw Data (CCR4 [1]; 375 nM): 19528 | Raw Data (CCR4 [1]; high concentration, 0.001 uM): 9494 | Raw Data (CCR4 [1]; high concentration, 0.003 uM): 10549 | Raw Data (CCR4 [1]; high concentration, 0.008 uM): 10183 | Raw Data (CCR4 [1]; high concentration, 0.023 uM): 11338 | Raw Data (CCR4 [1]; high concentration, 0.1 uM): 11394 | Raw Data (CCR4 [1]; high concentration, 0.2 uM): 12202 | Raw Data (CCR4 [1]; high concentration, 0.6 uM): 11009 | Raw Data (CCR4 [1]; high concentration, 1.9 uM): 11006 | Raw Data (CCR4 [1]; high concentration, 5.6 uM): 10444 | Raw Data (CCR4 [1]; high concentration, 16.7 uM): 10968 | Raw Data (CCR4 [1]; high concentration, 50 uM): 9993 | Raw Data (CCR4 [2]; 1 nM CCL22, 0.001 uM): 139740 | Raw Data (CCR4 [2]; 1 nM CCL22, 0.003 uM): 146107 | Raw Data (CCR4 [2]; 1 nM CCL22, 0.008 uM): 158208 | Raw Data (CCR4 [2]; 1 nM CCL22, 0.023 uM): 155622 | Raw Data (CCR4 [2]; 1 nM CCL22, 0.1 uM): 132431 | Raw Data (CCR4 [2]; 1 nM CCL22, 0.2 uM): 136037 | Raw Data (CCR4 [2]; 1 nM CCL22, 0.6 uM): 141369 | Raw Data (CCR4 [2]; 1 nM CCL22, 1.9 uM): 129872 | Raw Data (CCR4 [2]; 1 nM CCL22, 5.6 uM): 110179 | Raw Data (CCR4 [2]; 1 nM CCL22, 16.7 uM): 106271 | Raw Data (CCR4 [2]; 1 nM CCL22, 50 uM): 85131 | IC80 (CCR4 [2]; 10 nM CCL22): 9.29 µM | Raw Data (CCR4 [2]; 10 nM CCL22, 0.001 uM): 164482 | Raw Data (CCR4 [2]; 10 nM CCL22, 0.003 uM): 157449 | Raw Data (CCR4 [2]; 10 nM CCL22, 0.008 uM): 146640 | Raw Data (CCR4 [2]; 10 nM CCL22, 0.023 uM): 154833 | Raw Data (CCR4 [2]; 10 nM CCL22, 0.1 uM): 154951 | Raw Data (CCR4 [2]; 10 nM CCL22, 0.2 uM): 151383 | Raw Data (CCR4 [2]; 10 nM CCL22, 0.6 uM): 163219 | Raw Data (CCR4 [2]; 10 nM CCL22, 1.9 uM): 153353 | Raw Data (CCR4 [2]; 10 nM CCL22, 5.6 uM): 145586 | Raw Data (CCR4 [2]; 10 nM CCL22, 16.7 uM): 127180 | Raw Data (CCR4 [2]; 10 nM CCL22, 50 uM): 119853
Sequence: ACLNGCRNTNSQCA [24-11-00-N001, bicyclic peptide ligand, TATA scaffold, from CCR4 cell-based selection]

Raw Data (CCR4 [1]; 0.006 nM): 31416 | Raw Data (CCR4 [1]; 0.02 nM): 30201 | Raw Data (CCR4 [1]; 0.06 nM): 30311 | Raw Data (CCR4 [1]; 0.17 nM): 27668 | Raw Data (CCR4 [1]; 0.51 nM): 34202 | Raw Data (CCR4 [1]; 1.5 nM): 31584 | Raw Data (CCR4 [1]; 4.6 nM): 28872 | Raw Data (CCR4 [1]; 13.9 nM): 27830 | Raw Data (CCR4 [1]; 41.7 nM): 26640 | Raw Data (CCR4 [1]; 125 nM): 25288 | Raw Data (CCR4 [1]; 375 nM): 22486 | Raw Data (CCR4 [1]; high concentration, 0.001 uM): 10679 | Raw Data (CCR4 [1]; high concentration, 0.003 uM): 11299 | Raw Data (CCR4 [1]; high concentration, 0.008 uM): 11106 | Raw Data (CCR4 [1]; high concentration, 0.023 uM): 12540 | Raw Data (CCR4 [1]; high concentration, 0.1 uM): 13063 | Raw Data (CCR4 [1]; high concentration, 0.2 uM): 13783 | Raw Data (CCR4 [1]; high concentration, 0.6 uM): 13041 | Raw Data (CCR4 [1]; high concentration, 1.9 uM): 13661 | Raw Data (CCR4 [1]; high concentration, 5.6 uM): 12922 | Raw Data (CCR4 [1]; high concentration, 16.7 uM): 12407 | Raw Data (CCR4 [1]; high concentration, 50 uM): 12457 | Raw Data (CCR4 [2]; 1 nM CCL22, 0.001 uM): 205771 | Raw Data (CCR4 [2]; 1 nM CCL22, 0.003 uM): 230925 | Raw Data (CCR4 [2]; 1 nM CCL22, 0.008 uM): 216507 | Raw Data (CCR4 [2]; 1 nM CCL22, 0.023 uM): 200429 | Raw Data (CCR4 [2]; 1 nM CCL22, 0.1 uM): 190863 | Raw Data (CCR4 [2]; 1 nM CCL22, 0.2 uM): 196279 | Raw Data (CCR4 [2]; 1 nM CCL22, 0.6 uM): 195159 | Raw Data (CCR4 [2]; 1 nM CCL22, 1.9 uM): 184486 | Raw Data (CCR4 [2]; 1 nM CCL22, 5.6 uM): 225342 | Raw Data (CCR4 [2]; 1 nM CCL22, 16.7 uM): 123432 | Raw Data (CCR4 [2]; 1 nM CCL22, 50 uM): 101311 | Raw Data (CCR4 [2]; 10 nM CCL22, 0.001 uM): 162386 | Raw Data (CCR4 [2]; 10 nM CCL22, 0.003 uM): 192263 | Raw Data (CCR4 [2]; 10 nM CCL22, 0.008 uM): 193071 | Raw Data (CCR4 [2]; 10 nM CCL22, 0.023 uM): 176223 | Raw Data (CCR4 [2]; 10 nM CCL22, 0.1 uM): 168443 | Raw Data (CCR4 [2]; 10 nM CCL22, 0.2 uM): 197817 | Raw Data (CCR4 [2]; 10 nM CCL22, 0.6 uM): 207362 | Raw Data (CCR4 [2]; 10 nM CCL22, 1.9 uM): 197426 | Raw Data (CCR4 [2]; 10 nM CCL22, 5.6 uM): 164381 | Raw Data (CCR4 [2]; 10 nM CCL22, 16.7 uM): 163675 | Raw Data (CCR4 [2]; 10 nM CCL22, 50 uM): 134429
Sequence: ACLSCARHGNQCA [24-12-00-N001, bicyclic peptide ligand, TATA scaffold, from CCR4 cell-based selection]
